One assay has as its target yeast ACBP. Details: method as in PMID 8093000. The note with it: read-out: binding affinity; cited from earlier work.
The target in the next assay is T1, rAtACBP4 (Arabidopsis thaliana, UniProt Q9MA55).
T1 sequence (Q9MA55 1-668): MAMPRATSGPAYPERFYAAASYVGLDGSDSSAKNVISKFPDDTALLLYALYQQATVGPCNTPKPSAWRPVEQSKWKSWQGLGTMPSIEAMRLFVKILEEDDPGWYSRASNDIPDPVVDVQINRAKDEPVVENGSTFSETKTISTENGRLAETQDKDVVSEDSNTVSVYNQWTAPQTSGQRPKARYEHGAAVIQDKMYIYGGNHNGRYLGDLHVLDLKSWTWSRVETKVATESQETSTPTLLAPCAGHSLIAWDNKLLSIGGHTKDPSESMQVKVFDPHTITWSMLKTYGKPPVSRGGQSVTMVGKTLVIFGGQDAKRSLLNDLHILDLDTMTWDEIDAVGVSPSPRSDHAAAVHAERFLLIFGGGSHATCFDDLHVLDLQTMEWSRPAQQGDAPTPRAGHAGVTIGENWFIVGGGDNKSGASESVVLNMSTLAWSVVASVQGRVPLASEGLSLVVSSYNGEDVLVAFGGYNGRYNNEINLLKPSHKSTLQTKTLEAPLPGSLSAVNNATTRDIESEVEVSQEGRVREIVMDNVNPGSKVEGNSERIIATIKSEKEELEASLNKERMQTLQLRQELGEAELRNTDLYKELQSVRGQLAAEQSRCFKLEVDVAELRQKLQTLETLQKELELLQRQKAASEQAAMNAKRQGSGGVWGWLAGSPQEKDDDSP
In words: ITC of acyl-CoA esters binding to rAtACBP4. The source says:
(§1) The protein expression plasmids containing full-length AtACBP4 and AtACBP5 cDNA were previously constructed in the vector pRSETB (Invitrogen) as pAT184 and pAT185, respectively. Recombinant (His)6-AtACBP4 and (His)6-AtACBP5 proteins (rAtACBP4 and rAtACBP5) were expressed in Escherichia coli, purified and refolded according to Leung et al.. The coding sequence of AtACBP6 was amplified by PCR with primer pairs ACBP-F1 and ACBP-R1 and cloned into expression vector pEXP5-NT/TOPO (Invitrogen) to generate plasmid pEXP-ACBP6. Sequences of primers are listed in Supplementary Table S1. Recombinant (His)6-AtACBP6 (rAtACBP6) was expressed in E. coli and purified following Chye. The three recombinant proteins were dialysed in 10 mM sodium phosphate buffer (pH 7.0). Protein concentrations were determined by the standard Bradford assay (Bio-Rad).
(§2) Calorimetric titration was performed with a MicroCal iTC200 system (GE Healthcare) at 30°C. Long-chain acyl-CoA esters (Avanti Polar Lipids, Inc.) were dissolved in 10 mM sodium phosphate buffer (pH 7.0) to a final concentration of 0.25, 0.5 and 1 mM. The solution was degassed and loaded into a syringe, while 15 μM rAtACBP6, 6 μM rAtACBP4 or 60 μM rAtACBP5, was placed into the sample cell. For all titrations, 1.8 μl ligand was injected into the sample cell at 150 s intervals with a stirring speed of 1000 rpm. The titrations were completed after 20 injections. All data were collected automatically, and non-specific heat effects were estimated and corrected after saturation following the instructions of the manufacturer. Raw data were integrated and analysed using the Origin v.7.0 software accompanying the calorimeter.

A further assay has as its target T2, rAtACBP6 (Arabidopsis thaliana, UniProt P57752).
T2 construct: made in house; host or cells: Escherichia coli
T2 sequence (P57752 1-92): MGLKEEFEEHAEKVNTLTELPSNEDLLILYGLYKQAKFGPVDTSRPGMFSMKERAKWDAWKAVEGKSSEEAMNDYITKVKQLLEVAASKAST
Briefly: ITC of acyl-CoA esters binding to rAtACBP6. The note with it: ITC, 30°C, 10 mM sodium phosphate buffer pH 7.0.
Excerpt: as §1, §2

A further assay deals with 10-kDa bovine ACBP. Details: method as in PMID 8166635. The note with it: read-out: binding affinity; cited from earlier work.
A further assay has as its target T3, rAtACBP5 (Arabidopsis thaliana, UniProt Q8RWD9).
T3 sequence (Q8RWD9 1-648): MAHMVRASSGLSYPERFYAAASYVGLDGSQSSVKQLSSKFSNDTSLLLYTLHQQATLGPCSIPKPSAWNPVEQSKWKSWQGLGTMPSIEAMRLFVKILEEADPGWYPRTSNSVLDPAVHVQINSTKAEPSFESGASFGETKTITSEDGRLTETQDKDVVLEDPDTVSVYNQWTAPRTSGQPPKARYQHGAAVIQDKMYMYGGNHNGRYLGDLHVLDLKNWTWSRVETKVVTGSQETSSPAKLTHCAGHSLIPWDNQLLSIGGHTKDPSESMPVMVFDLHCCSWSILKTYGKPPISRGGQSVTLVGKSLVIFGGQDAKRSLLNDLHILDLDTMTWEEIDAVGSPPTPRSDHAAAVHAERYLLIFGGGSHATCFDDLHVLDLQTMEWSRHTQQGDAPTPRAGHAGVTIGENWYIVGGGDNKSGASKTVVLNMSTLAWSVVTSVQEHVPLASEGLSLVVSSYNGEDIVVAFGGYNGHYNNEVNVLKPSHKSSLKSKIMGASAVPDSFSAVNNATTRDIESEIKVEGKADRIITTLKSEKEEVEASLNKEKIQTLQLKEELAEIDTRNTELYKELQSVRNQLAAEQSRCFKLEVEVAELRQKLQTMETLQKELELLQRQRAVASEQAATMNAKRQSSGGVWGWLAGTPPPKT
Briefly: ITC of acyl-CoA esters binding to rAtACBP5.
Excerpt: as §1, §2

The mark [1] stands for this setting: ITC, 30°C, 10 mM sodium phosphate buffer pH 7.0.
Setting [2] is: ITC, 30°C, 10 mM sodium phosphate buffer pH 7.0, mean of three experiments±S.D., stoichiometry of ligand-to-protein binding.
[3] abbreviates: ITC, 30°C, 10 mM sodium phosphate buffer pH 7.0, mean of three±S.D.
The mark [4] stands for this setting: ITC, 30°C, 10 mM sodium phosphate buffer pH 7.0, mean of three±S.D., in kcal/mol.
Where [5] appears, read: ITC, 30°C, 10 mM sodium phosphate buffer pH 7.0, mean of three±S.D., read-out: Kd.

Consider `CCCCCCCCCCCCCCCC(=O)SCCNC(=O)CCNC(=O)[C@H](O)C(C)(C)COP(=O)(O)OP(=O)(O)OC[C@H]1O[C@@H](n2cnc3c(N)ncnc32)[C@H](O)[C@@H]1OP(=O)(O)O` [16:0, palmitoyl-CoA], for which the Kd was 5.5 nM on yeast ACBP; 23500 ± 27100 nM at rAtACBP4 (setting [5]); 35.9 ± 8.4 nM on rAtACBP6 (mean of three±S.D., read-out: Kd); 0.0045 nM on 10-kDa bovine ACBP; 35700 ± 1000 nM on rAtACBP5 (setting [5]). In addition, the ΔS on rAtACBP4 (setting [1]) was -236 cal/(mol·K); at rAtACBP6, -11.5 cal/(mol·K); on rAtACBP5 (setting [1]), -16.7 cal/(mol·K). Moreover, the n on rAtACBP4 (setting [2]) was determined as 1; at rAtACBP6 (mean of three experiments±S.D., stoichiometry of ligand-to-protein binding) it was 1 ± 0.1; on rAtACBP5 (setting [2]) it was 0.9. For the same compound, the values for the ΔH on rAtACBP4 (setting [3]), on rAtACBP6 (mean of three±S.D.) and on rAtACBP5 (setting [3]) were -77.4 ± 2.5 kcal/mol, -13.7 ± 2.4 kcal/mol and -11.2 ± 0.5 kcal/mol, respectively. The ΔG on rAtACBP4 (setting [4]) is given as −6.1±0.2; at rAtACBP6 (mean of three±S.D., in kcal/mol), −10.2±0.0; at rAtACBP5 (setting [4]), −6.2±0.0. The “weaker binding than armadillo ACBP” value on rAtACBP4 (rAtACBP4 versus armadillo ACBP) and on rAtACBP5 (rAtACBP5 versus armadillo ACBP) was 1000 fold throughout.
